Data reported in patent US20210052593A1, “Compositions and Methods for the Treatment of Macrophage Activation Syndrome” (Children's Hospital Medical Center, priority 2018, published 2021).

How the values were obtained:
[1] = treatment of MAS; cited from earlier work
[2] = tested on: MAS patients; conditions: cited from earlier work
[3] = tested on: IFN-induced signature; conditions: clinical trial of anakinra in SJIA, Quartier et al; vs placebo, regardless of response status; cited from earlier work
[4] = tested on: SJIA patients; conditions: observed MAS rates in phase III trials, even if underlying SJIA well controlled; cited from earlier work
[5] = tested on: perforin-deficient mice infected with murine CMV; conditions: cited from earlier work
[6] = tested on: SJIA patient with recurrent MAS; test: Use of Tadekinig-alfa in an SJIA patient with recurrent MAS; assay type: in vivo, human; conditions: one SJIA patient with recurrent MAS

Molecule: COc1cc([C@@H]2c3cc4c(cc3[C@@H](O[C@@H]3O[C@@H]5CO[C@@H](C)O[C@H]5[C@H](O)[C@H]3O)[C@H]3COC(=O)[C@H]23)OCO4)cc(OC)c1O [etoposide]
- associated toxicity / side effects [1]: Life threatening bone marrow suppression, short-term, and hematologic malignancies later in life

Molecule: anakinra
- treatment of MAS ([2]; literature reports): successful treatment of MAS
- strength of the IFN-induced signature [3]: sustained increase

Molecule: canakinumab
- protection against MAS [4]: do not provide protection against MAS

Molecule: rilonacept
- occurrence of MAS in treated patients ([2]; literature report): MAS has been seen

Molecule: tocilizumab
- protection against MAS [4]: do not provide protection against MAS

B1: synthetic IL-18BP: synthetic IL-18 binding protein administered to mice (protein, UniProt Q9Z0M9 29-193, looked up)
Interleukin-18-binding protein: TSAPQTTATVLTGSSKDPCSSWSPAVPTKQYPALDVIWPEKEVPLNGTLTLSCTACSRFPYFSILYWLGNGSFIEHLPGRLKEGHTSREHRNTSTWLHRALVLEELSPTLRSTNFSCLFVDPGQVAQYHIILAQLWDGLKTAPSPSQETLSSHSPVSRSAGPGVA
- liver damage [5]: ameliorated liver damage
- overall survival [5]: no change
- production of proinflammatory cytokines [5]: remained high

B2: Tadekinig-alfa (protein, UniProt O95998 31-194, looked up)
Interleukin-18-binding protein: TPVSQTTTAATASVRSTKDPCPSQPPVFPAAKQCPALEVTWPEVEVPLNGTLSLSCVACSRFPNFSILYWLGNGSFIEHLPGRLWEGSTSRERGSTGTQLCKALVLEQLTPALHSTNFSCVLVDPEQVVQRHVVLAQLWAGLRATLPPTQEALPSSHSSPQQQG
notes: recombinant IL18BP
- frequency of MAS episodes [6]: remained unchanged
- severity of MAS episodes [6]: reduced the severity of MAS episodes
